Data taken from US11034725B2, “Compositions and methods for treating cardiovascular disease” (Genentech, Inc., priority 2016, dated 2021).
pIC50: −log10 of the molar value. Numbered stars: 1 amine (or outer) side, 2 acyl side, 3 side chain; on linkers, the order of the positions; unused ones are H or OH. Square brackets hold non-standard residues; d marks the D form. Peptide text beside a SMILES is read from it. * marks the point of attachment. Propanoyl(3-indol-3-yl) = O=C(CCc1c[nH]c2ccccc12)*; Butyryl(4-indol-3-yl) = O=C(CCCc1c[nH]c2ccccc12)*; Propanoyl(3-(4-F-phenyl)) = O=C(CCc1ccc(F)cc1)*; Propanoyl(3-(4-MeO-Ph)) = COc1ccc(CCC(=O)*)cc1; Propanoyl(3-(4-Cl-Ph)) = O=C(CCc1ccc(Cl)cc1)*; X20 = O=C(c1cc(-c2ccncc2)n[nH]1)*; X45 = CC(=O)c1ccc(OCCCC(=O)*)cc1; hArg = N=C(N)NCCCC[C@H](N)C(=O)O; X36 = CC(=O)c1ccc(OCCC(=O)*)cc1; X28 = COc1cc(OCCCC(=O)*)ccc1CO; X39 = O=C(C1CCC(c2ccccc2)CC1)*; X22 = O=C(C1CC(Cc2ccccc2)C1)*; Suc = O=C(CCC(=O)[*:2])[*:1]; X11 = O=C(CCCOc1ccc(Br)cc1)*; X18 = COc1ccc(OCCC(=O)*)cc1; X12 = O=C(CCCc1ccc(F)cc1)*; X15 = COc1cccc(CCC(=O)*)c1; Morpholide = C1CN(*)CCO1; X27 = O=C(CCCN1CCOCC1)*; Pentanoyl = CCCCC(=O)*

Tests used:
PCSK9 = PCSK9 (Homo sapiens, UniProt Q8NBP7); assay: PCSK9/EGF(A) TR-FRET binding assay; settings: TR-FRET; Table 8E, additional compounds; read-out: PCSK9/EGF(A) IC50
Procedure: The former was based on a TF-FRET assay to measure the association of the EGF(A) domain of the LDLR to PCSK9 (“PCSK9/EGF(A) binding assay”) whilst the latter was based on a TR-FRET assay to measure binding of Ab20 to PCSK9Δhelix (“PCSK9Δhelix/Ab20 binding assay”).
The ability of compounds to inhibit binding to PCSK9 was evaluated with a panel of time-resolved fluorescence resonance energy transfer (TR-FRET) binding assays. […] The PCSK9Δhelix/Ab20 binding assay evaluated the ability of compounds to compete with Ab20 for binding to the N-terminal groove region in a His-tagged, PCSK9Δhelix construct. […] Signal generation in the PCSK9 binding assays was dependent upon the binding interaction to bring into close proximity the His-tag on the PCSK9 and the Fc-tag on the ligand. Anti-His-APC was bound to the His-tag, and anti-Fc-europium was bound to the Fc-tag. When these two antibodies were in close proximity and were irradiated with light at 340 nm, the europium was excited and emitted energy at 615 nm. This energy was taken up by the APC and was emitted as light at 665 nm. Compounds that competed with the ligand reduced the energy transfer and thus the emission at 665 nm. In the His-EGFA-Fc molecule in the counterscreen, the two tags were always in close proximity, thus any reduction in emission at 665 nm was due to interference with the detection system.
Compounds were solubilized and dilutions were prepared in DMSO. […] The plate was centrifuged to mix the well contents and allowed to incubate for 30 min. […] The TR-FRET signal was read on a ViewLux reader (PerkinElmer) with excitation at 340 nm and emission at 615 and 665 nm with a 50-μs time delay between excitation and measurement of emission. The TR-FRET ratio was calculated as the fluorescence emission at 665 nm divided by the fluorescence emission at 615 nm. The normalized TR-FRET ratios were plotted as a function of the compound concentrations, and the IC50 values were determined using a 4-parameter logistic regression.
In black 1536-well assay plates (MaKO, Aurora® Microplates, Whitefish, Mont.), 40 nL of peptide in DMSO were preincubated with 2 μL His-tagged PCSK9 plus anti-His-allophycocyanin in assay buffer (50 mM Tris-HCl, pH 7.5, 150 mM NaCl, 2 mM CaCl2, 0.01% Tween®-20, 0.1% bovine gamma globulins, and protease inhibitor cocktail) for 30 min. Then 2 μL of Fc-tagged ligand and anti-Fc-europium in assay buffer were added and allowed to incubate for 2 h.

PCSK9Δhelix = target: T1, PCSK9Δhelix (Homo sapiens, UniProt Q8NBP7); assay: PCSK9Δhelix/Ab20 TR-FRET binding assay; settings: TR-FRET; Table 8E, additional compounds; read-out: PCSK9Δhelix/Ab20 IC50
T1 construct: Human PCSK9 construct M1-Q692 with an engineered TEV site (residue deletion Y166, R167); made in house; host or cells: CHO
T1 sequence (Q8NBP7 with tags, fused parts or gaps limits assumed): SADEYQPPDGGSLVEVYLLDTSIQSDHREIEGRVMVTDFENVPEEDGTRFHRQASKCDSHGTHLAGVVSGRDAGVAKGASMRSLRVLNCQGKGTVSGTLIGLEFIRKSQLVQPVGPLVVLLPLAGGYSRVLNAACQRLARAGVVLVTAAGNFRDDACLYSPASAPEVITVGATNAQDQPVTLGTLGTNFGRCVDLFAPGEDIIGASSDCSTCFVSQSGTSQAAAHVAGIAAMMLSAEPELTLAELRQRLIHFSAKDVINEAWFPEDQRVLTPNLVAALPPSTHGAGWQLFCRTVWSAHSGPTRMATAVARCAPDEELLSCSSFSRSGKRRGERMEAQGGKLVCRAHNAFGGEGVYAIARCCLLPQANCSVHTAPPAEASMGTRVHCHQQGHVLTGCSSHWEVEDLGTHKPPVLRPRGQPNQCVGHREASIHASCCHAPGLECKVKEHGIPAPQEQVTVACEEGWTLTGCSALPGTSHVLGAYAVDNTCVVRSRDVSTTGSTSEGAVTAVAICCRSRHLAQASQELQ
T1 sequence (Q8NBP7 31-152 partner limits assumed): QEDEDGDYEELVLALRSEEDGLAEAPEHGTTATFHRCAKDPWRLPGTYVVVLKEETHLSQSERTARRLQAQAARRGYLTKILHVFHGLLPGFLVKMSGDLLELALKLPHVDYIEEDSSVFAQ

Sequence of PCSK9 (Q8NBP7 153-692): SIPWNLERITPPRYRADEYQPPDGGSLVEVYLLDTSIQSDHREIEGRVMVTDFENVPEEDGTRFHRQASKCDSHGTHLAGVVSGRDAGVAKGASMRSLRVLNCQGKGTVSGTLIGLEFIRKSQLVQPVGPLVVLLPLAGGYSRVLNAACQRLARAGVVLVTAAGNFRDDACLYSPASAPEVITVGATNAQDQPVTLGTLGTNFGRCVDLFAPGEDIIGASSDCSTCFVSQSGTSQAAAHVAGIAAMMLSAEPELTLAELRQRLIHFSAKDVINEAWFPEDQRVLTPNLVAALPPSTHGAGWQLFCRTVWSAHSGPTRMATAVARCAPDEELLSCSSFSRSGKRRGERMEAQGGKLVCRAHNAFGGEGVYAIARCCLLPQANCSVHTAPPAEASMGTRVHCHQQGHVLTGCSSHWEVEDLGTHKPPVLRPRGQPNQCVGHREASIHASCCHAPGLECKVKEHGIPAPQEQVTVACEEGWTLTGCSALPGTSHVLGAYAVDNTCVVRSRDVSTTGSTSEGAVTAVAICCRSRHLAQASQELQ
Sequence of PCSK9 (Q8NBP7 31-152 partner limits assumed): as the sequence (Q8NBP7 31-152 partner limits assumed) above

Row | Compound | pIC50 (PCSK9) | pIC50 (PCSK9Δhelix)
1 | CCCCC(=O)N[C@@H](Cc1c[nH]c2ccccc12)C(=O)N[C@@H](CC(N)=O)C(=O)N[C@@H](CC(C)C)C(=O)N[C@H](C(=O)N[C@@H](CCCNC(=N)N)C(=O)N[C@H](C(=O)NCC(=O)N[C@@H](CC(C)C)C(=O)N[C@@H](CO)C(=O)N[C@@H](CCCNC(=N)N)C(N)=O)[C@@H](C)CC)C(C)C [Compound 181] (Pentanoyl-WNLVRIGLSR-NH2) | ≤ 4.30 | 5.05
2 | CC[C@H](C)[C@H](NC(=O)[C@H](CCCNC(=N)N)NC(=O)[C@@H](NC(=O)[C@H](CC(C)C)NC(=O)[C@H](CC(N)=O)NC(=O)[C@H](Cc1c[nH]c2ccccc12)NC(=O)CCCOc1ccc(Br)cc1)C(C)C)C(=O)NCC(=O)N[C@@H](CC(C)C)C(=O)N[C@H](C(=O)N[C@@H](CCCNC(=N)N)C(N)=O)[C@@H](C)O [Compound 182] (X11-WNLVRIGLTR-NH2) | 4.85 | 5.40
3 | CC[C@H](C)[C@H](NC(=O)[C@H](CCCNC(=N)N)NC(=O)[C@@H](NC(=O)[C@H](CC(C)C)NC(=O)[C@H](CC(N)=O)NC(=O)[C@H](Cc1c[nH]c2ccccc12)NC(=O)CCCOc1ccc(C(C)=O)cc1)C(C)C)C(=O)NCC(=O)N[C@@H](CC(C)C)C(=O)N[C@H](C(=O)N[C@@H](CCCNC(=N)N)C(N)=O)[C@@H](C)O [Compound 183] (X45-WNLVRIGLTR-NH2) | 4.74 | 5.60
4 | CC[C@H](C)[C@H](NC(=O)[C@H](CCCNC(=N)N)NC(=O)[C@@H](NC(=O)[C@H](CC(C)C)NC(=O)[C@H](CC(N)=O)NC(=O)[C@H](Cc1c[nH]c2ccccc12)NC(=O)C1CC(Cc2ccccc2)C1)C(C)C)C(=O)NCC(=O)N[C@@H](CC(C)C)C(=O)N[C@H](C(=O)N[C@@H](CCCNC(=N)N)C(N)=O)[C@@H](C)O (stereo partly drawn) [Compound 184] (X22-WNLVRIGLTR-NH2) | 4.72 | 4.92
5 | CC[C@H](C)[C@H](NC(=O)[C@H](CCCNC(=N)N)NC(=O)[C@@H](NC(=O)[C@H](CC(C)C)NC(=O)[C@H](CC(N)=O)NC(=O)[C@H](Cc1c[nH]c2ccccc12)NC(=O)C1CCC(c2ccccc2)CC1)C(C)C)C(=O)NCC(=O)N[C@@H](CC(C)C)C(=O)N[C@H](C(=O)N[C@@H](CCCNC(=N)N)C(N)=O)[C@@H](C)O (stereo partly drawn) [Compound 185] (X39-WNLVRIGLTR-NH2) | 5.24 | 6.41
6 | CC[C@H](C)[C@H](NC(=O)[C@H](CCCNC(=N)N)NC(=O)[C@@H](NC(=O)[C@H](CC(C)C)NC(=O)[C@H](CC(N)=O)NC(=O)[C@H](Cc1c[nH]c2ccccc12)NC(=O)c1cc(-c2ccncc2)n[nH]1)C(C)C)C(=O)NCC(=O)N[C@@H](CC(C)C)C(=O)N[C@H](C(=O)N[C@@H](CCCNC(=N)N)C(N)=O)[C@@H](C)O [Compound 188] (X20-WNLVRIGLTR-NH2) | 4.66 | 5.12
7 | CC[C@H](C)[C@H](NC(=O)[C@H](CCCNC(=N)N)NC(=O)[C@@H](NC(=O)[C@H](CC(C)C)NC(=O)[C@H](CC(N)=O)NC(=O)[C@H](Cc1c[nH]c2ccccc12)NC(=O)CCc1c[nH]c2ccccc12)C(C)C)C(=O)NCC(=O)N[C@@H](CC(C)C)C(=O)N[C@H](C(=O)N[C@@H](CCCNC(=N)N)C(N)=O)[C@@H](C)O [Compound 189] ({Propanoyl(3-indol-3-yl)}-WNLVRIGLTR-NH2) | 4.42 | 4.92
8 | CC[C@H](C)[C@H](NC(=O)[C@H](CCCNC(=N)N)NC(=O)[C@@H](NC(=O)[C@H](CC(C)C)NC(=O)[C@H](CC(N)=O)NC(=O)[C@H](Cc1c[nH]c2ccccc12)NC(=O)CCCc1c[nH]c2ccccc12)C(C)C)C(=O)NCC(=O)N[C@@H](CC(C)C)C(=O)N[C@H](C(=O)N[C@@H](CCCNC(=N)N)C(N)=O)[C@@H](C)O [Compound 190] ({Butyryl(4-indol-3-yl)}-WNLVRIGLTR-NH2) | 4.52 | 5.15
9 | CCCCC(=O)N[C@@H](Cc1c[nH]c2ccccc12)C(=O)N[C@@H](CC(N)=O)C(=O)N[C@@H](CC(C)C)C(=O)N[C@H](C(=O)N[C@@H](CCCCNC(=N)N)C(=O)N[C@H](C(=O)NCC(=O)N[C@@H](CC(C)C)C(=O)N[C@@H](CC(C)C)C(=O)N[C@@H](CCCNC(=N)N)C(N)=O)[C@@H](C)CC)C(C)C [Compound 191, n-BuC(O)-WNLV(homoR)IGLLR-NH2] (Pentanoyl-WNLV[hArg]IGLLR-NH2) | ≤ 4.30 | 5.89
10 | CC[C@H](C)[C@H](NC(=O)[C@H](CCCCNC(=N)N)NC(=O)[C@@H](NC(=O)[C@H](CC(C)C)NC(=O)[C@H](CC(N)=O)NC(=O)[C@H](Cc1c[nH]c2ccccc12)NC(=O)CCCN1CCOCC1)C(C)C)C(=O)NCC(=O)N[C@@H](CC(C)C)C(=O)N[C@@H](CC(C)C)C(=O)N[C@@H](CCCNC(=N)N)C(N)=O [Compound 193] (X27-WNLV[hArg]IGLLR-NH2) | ≤ 4.30 | 5.82
11 | CC[C@H](C)[C@H](NC(=O)[C@H](CCCCNC(=N)N)NC(=O)[C@@H](NC(=O)[C@H](CC(C)C)NC(=O)[C@H](CC(N)=O)NC(=O)[C@H](Cc1c[nH]c2ccccc12)NC(=O)CCC(=O)N1CCOCC1)C(C)C)C(=O)NCC(=O)N[C@@H](CC(C)C)C(=O)N[C@@H](CC(C)C)C(=O)N[C@@H](CCCNC(=N)N)C(N)=O [Compound 194] ({Morpholide-Suc}-WNLV[hArg]IGLLR-NH2) | ≤ 4.30 | 5.72
12 | CC[C@H](C)[C@H](NC(=O)[C@H](CCCCNC(=N)N)NC(=O)[C@@H](NC(=O)[C@H](CC(C)C)NC(=O)[C@H](CC(N)=O)NC(=O)[C@H](Cc1c[nH]c2ccccc12)NC(=O)CCCc1ccc(F)cc1)C(C)C)C(=O)NCC(=O)N[C@@H](CC(C)C)C(=O)N[C@@H](CC(C)C)C(=O)N[C@@H](CCCNC(=N)N)C(N)=O [Compound 196] (X12-WNLV[hArg]IGLLR-NH2) | 5.14 | 5.85
13 | CC[C@H](C)[C@H](NC(=O)[C@H](CCCCNC(=N)N)NC(=O)[C@@H](NC(=O)[C@H](CC(C)C)NC(=O)[C@H](CC(N)=O)NC(=O)[C@H](Cc1c[nH]c2ccccc12)NC(=O)CCc1ccc(OC)cc1)C(C)C)C(=O)NCC(=O)N[C@@H](CC(C)C)C(=O)N[C@@H](CC(C)C)C(=O)N[C@@H](CCCNC(=N)N)C(N)=O [Compound 197] ({Propanoyl(3-(4-MeO-Ph))}-WNLV[hArg]IGLLR-NH2) | 6.01 | 7.05
14 | CC[C@H](C)[C@H](NC(=O)[C@H](CCCCNC(=N)N)NC(=O)[C@@H](NC(=O)[C@H](CC(C)C)NC(=O)[C@H](CC(N)=O)NC(=O)[C@H](Cc1c[nH]c2ccccc12)NC(=O)CCc1ccc(F)cc1)C(C)C)C(=O)NCC(=O)N[C@@H](CC(C)C)C(=O)N[C@@H](CC(C)C)C(=O)N[C@@H](CCCNC(=N)N)C(N)=O [Compound 198] ({Propanoyl(3-(4-F-phenyl))}-WNLV[hArg]IGLLR-NH2) | 5.77 | 6.60
15 | CC[C@H](C)[C@H](NC(=O)[C@H](CCCCNC(=N)N)NC(=O)[C@@H](NC(=O)[C@H](CC(C)C)NC(=O)[C@H](CC(N)=O)NC(=O)[C@H](Cc1c[nH]c2ccccc12)NC(=O)CCc1ccc(Cl)cc1)C(C)C)C(=O)NCC(=O)N[C@@H](CC(C)C)C(=O)N[C@@H](CC(C)C)C(=O)N[C@@H](CCCNC(=N)N)C(N)=O [Compound 199] ({Propanoyl(3-(4-Cl-Ph))}-WNLV[hArg]IGLLR-NH2) | 6.01 | 6.70
16 | CC[C@H](C)[C@H](NC(=O)[C@H](CCCCNC(=N)N)NC(=O)[C@@H](NC(=O)[C@H](CC(C)C)NC(=O)[C@H](CC(N)=O)NC(=O)[C@H](Cc1c[nH]c2ccccc12)NC(=O)CCCc1c[nH]c2ccccc12)C(C)C)C(=O)NCC(=O)N[C@@H](CC(C)C)C(=O)N[C@@H](CC(C)C)C(=O)N[C@@H](CCCNC(=N)N)C(N)=O [Compound 200] ({Butyryl(4-indol-3-yl)}-WNLV[hArg]IGLLR-NH2) | 5.49 | 6.17
17 | CC[C@H](C)[C@H](NC(=O)[C@H](CCCCNC(=N)N)NC(=O)[C@@H](NC(=O)[C@H](CC(C)C)NC(=O)[C@H](CC(N)=O)NC(=O)[C@H](Cc1c[nH]c2ccccc12)NC(=O)CCc1c[nH]c2ccccc12)C(C)C)C(=O)NCC(=O)N[C@@H](CC(C)C)C(=O)N[C@@H](CC(C)C)C(=O)N[C@@H](CCCNC(=N)N)C(N)=O [Compound 201] ({Propanoyl(3-indol-3-yl)}-WNLV[hArg]IGLLR-NH2) | 5.41 | 6.00
18 | CC[C@H](C)[C@H](NC(=O)[C@H](CCCCNC(=N)N)NC(=O)[C@@H](NC(=O)[C@H](CC(C)C)NC(=O)[C@H](CC(N)=O)NC(=O)[C@H](Cc1c[nH]c2ccccc12)NC(=O)CCc1cccc(OC)c1)C(C)C)C(=O)NCC(=O)N[C@@H](CC(C)C)C(=O)N[C@@H](CC(C)C)C(=O)N[C@@H](CCCNC(=N)N)C(N)=O [Compound 202] (X15-WNLV[hArg]IGLLR-NH2) | 5.59 | 6.47
19 | CC[C@H](C)[C@H](NC(=O)[C@H](CCCCNC(=N)N)NC(=O)[C@@H](NC(=O)[C@H](CC(C)C)NC(=O)[C@H](CC(N)=O)NC(=O)[C@H](Cc1c[nH]c2ccccc12)NC(=O)CCOc1ccc(OC)cc1)C(C)C)C(=O)NCC(=O)N[C@@H](CC(C)C)C(=O)N[C@@H](CC(C)C)C(=O)N[C@@H](CCCNC(=N)N)C(N)=O [Compound 203] (X18-WNLV[hArg]IGLLR-NH2) | 4.68 | 5.80
20 | CC[C@H](C)[C@H](NC(=O)[C@H](CCCCNC(=N)N)NC(=O)[C@@H](NC(=O)[C@H](CC(C)C)NC(=O)[C@H](CC(N)=O)NC(=O)[C@H](Cc1c[nH]c2ccccc12)NC(=O)CCCOc1ccc(CO)c(OC)c1)C(C)C)C(=O)NCC(=O)N[C@@H](CC(C)C)C(=O)N[C@@H](CC(C)C)C(=O)N[C@@H](CCCNC(=N)N)C(N)=O [Compound 204] (X28-WNLV[hArg]IGLLR-NH2) | 5.44 | 6.06
21 | CC[C@H](C)[C@H](NC(=O)[C@H](CCCCNC(=N)N)NC(=O)[C@@H](NC(=O)[C@H](CC(C)C)NC(=O)[C@H](CC(N)=O)NC(=O)[C@H](Cc1c[nH]c2ccccc12)NC(=O)CCOc1ccc(C(C)=O)cc1)C(C)C)C(=O)NCC(=O)N[C@@H](CC(C)C)C(=O)N[C@@H](CC(C)C)C(=O)N[C@@H](CCCNC(=N)N)C(N)=O [Compound 205] (X36-WNLV[hArg]IGLLR-NH2) | 5.55 | 6.19
